Experimental data: ChEMBL document CHEMBL1268875, “Isoflavone derivatives inhibit NF-κB-dependent transcriptional activity” (Bioorg Med Chem Lett, 2010)
Activity calls are given as the source filed them. The calls are words filed in the database; no cut-off is given here.

The molecules below were run on HCT-116 (assay: Inhibition of TNF-alpha-induced Nuclear factor-kappa-B-mediated CXCL1 expression in human HCT116 cells pretreated for 30 mins before stimulation with TNFalpha for 15 mins by RT-PCR).
Assay type: cell-based

For `COc1cc(OC)c2c(=O)c(-c3ccc(OC)c(OC)c3)coc2c1`, the inhibition was “Active”.

The molecules below were run on HCT-116 (assay: Inhibition of TNF-alpha-induced Nuclear factor-kappa-B-mediated CIAP2 expression in human HCT116 cells pretreated for 30 mins before stimulation with TNFalpha for 15 mins by RT-PCR).
Assay type: cell-based

With `COc1cc(OC)c2c(=O)c(-c3ccc(OC)c(OC)c3)coc2c1` the inhibition was “Active”.

What follows are molecules tested on HCT-116 (assay: Inhibition of TNF-alpha-induced nuclear translocation of Nuclear factor-kappa-B in human HCT116 cells pretreated for 30 mins before stimulation with TNFalpha for 30 mins by Western blot).
Assay type: cell-based

In the case of `COc1cc(OC)c2c(=O)c(-c3ccc(OC)c(OC)c3)coc2c1`, the inhibition is reported as “Active”.

What follows are molecules tested on HCT-116 (assay: Inhibition of TNF-alpha-induced Nuclear factor-kappa-B-mediated XIAP expression in human HCT116 cells pretreated for 30 mins before stimulation with TNFalpha for 15 mins by RT-PCR).
Assay type: cell-based

For `COc1cc(OC)c2c(=O)c(-c3ccc(OC)c(OC)c3)coc2c1`, the inhibition was “Active”.

These molecules were tested on HCT-116 (assay: Inhibition of TNF-alpha-induced Nuclear factor-kappa-B dependent transcriptional activity in human HCT116 cells assessed normalized inhibitory ratio of at 10 uM for 12 hrs by NF-kappaB cis-acting luciferase reporter gene assay relative to untreated control).
Assay type: cell-based

First: COc1cc(OC)c2c(=O)c(-c3ccc(Br)cc3)coc2c1
Second: COc1cc(OC)c2c(=O)c(-c3ccc(Cl)cc3)coc2c1
The Ratio of the first is lower: 0.25 for the first, 0.61 for the second.

Compared with `COc1ccc(-c2coc3cc(OC)c(Cl)cc3c2=O)cc1O`, `COc1ccc(-c2coc3cc(O)ccc3c2=O)cc1OC` is higher in Ratio: 0.54 for the first, 2.53 for the second.

Compared with `COc1ccc2c(=O)c(-c3ccc(Cl)cc3)coc2c1C`, `COc1ccc(-c2coc3c(C)c(OC)ccc3c2=O)cc1` is lower in Ratio: 0.63 for the first, 0.62 for the second.

Going from `COc1ccc2c(=O)c(-c3ccccc3)coc2c1C` to `Cc1c(O)ccc2c(=O)c(-c3ccccc3)coc12`, the Ratio rises from 0.23 to 0.45.

First: COc1ccc(-c2coc3c(OC)c(OC)ccc3c2=O)cc1
Second: COc1ccc2c(=O)c(-c3ccc(OC)c(OC)c3)coc2c1
The Ratio of the first is higher: 0.95 for the first, 0.45 for the second.

First: COc1ccc(-c2coc3cc(O)c(OC)cc3c2=O)cc1
Second: COc1cc(O)c2c(=O)c(-c3ccc(O)cc3)coc2c1
The Ratio of the first is higher: 2.37 for the first, 0.34 for the second.

`COc1cc2occ(-c3ccccc3Cl)c(=O)c2cc1Cl` and `COc1cc(OC)c2c(=O)c(-c3ccccc3Cl)coc2c1` are the same in Ratio: 0.54 for the first, 0.54 for the second.

Going from `Cc1cc2occ(-c3ccc(Cl)cc3Cl)c(=O)c2cc1Cl` to `Cc1cc2occ(-c3ccccc3)c(=O)c2cc1Cl`, the Ratio rises from 0.27 to 0.32.

First: COc1ccc(-c2coc3cc(OC)c(OC)cc3c2=O)cc1OC
Second: COc1cc(OC)c2c(=O)c(-c3ccc(OC)c(OC)c3)coc2c1
The Ratio of the first is higher: 0.4 for the first, 0.19 for the second.

First: COc1cc(OC)c2c(=O)c(-c3cccc(Cl)c3)coc2c1
Second: COc1cc(C)c2c(=O)c(-c3ccccc3)coc2c1
The Ratio of the first is lower: 0.63 for the first, 0.67 for the second.

First: COc1ccc2c(=O)c(-c3ccccc3)coc2c1
Second: Cc1c(O)ccc2c(=O)c(-c3ccc(Cl)cc3)coc12
The Ratio of the first is lower: 0.36 for the first, 1.04 for the second.

In the case of `O=c1c(-c2ccc(O)cc2)coc2c(O)c(O)ccc12`, the Ratio is reported as 1.22.
